Each structure is given as a SMILES string.

Common to all, as to experiment: biolayer interferometry
What all share (type): binding
For orientation: In BLI a coated tip is dipped into the sample, and binding shifts an interference pattern.

The target of assay [1] is Snail (Homo sapiens, UniProt O95863).
In a further assay the target is T1, Slug (Snail2) (Homo sapiens, UniProt O43623).
T1 sequence (O43623 1-268): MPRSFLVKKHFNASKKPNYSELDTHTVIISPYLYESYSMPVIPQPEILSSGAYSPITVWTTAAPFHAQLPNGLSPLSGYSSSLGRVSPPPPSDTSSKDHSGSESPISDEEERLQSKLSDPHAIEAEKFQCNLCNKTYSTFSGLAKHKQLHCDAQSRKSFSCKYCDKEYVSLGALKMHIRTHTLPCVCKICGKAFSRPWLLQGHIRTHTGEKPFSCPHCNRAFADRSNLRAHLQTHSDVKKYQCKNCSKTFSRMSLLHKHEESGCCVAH

For assay [2], the target named is Snail (Homo sapiens, UniProt O95863, R174A).
Sequence of Snail (Homo sapiens, UniProt O95863, R174A) (O95863 whole entry R174A): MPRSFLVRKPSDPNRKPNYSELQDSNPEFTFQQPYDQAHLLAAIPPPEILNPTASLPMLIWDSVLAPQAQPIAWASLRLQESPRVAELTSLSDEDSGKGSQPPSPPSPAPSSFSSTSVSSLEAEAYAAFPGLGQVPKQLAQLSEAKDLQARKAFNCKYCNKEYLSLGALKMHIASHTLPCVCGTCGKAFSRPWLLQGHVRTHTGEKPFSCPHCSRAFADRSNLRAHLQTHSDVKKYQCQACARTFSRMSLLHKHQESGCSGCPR

Sequence of Snail (Homo sapiens, UniProt O95863) (O95863 whole entry): as the sequence (O95863 whole entry R174A) above, with A174R counted along it

One may read the Kd as the equilibrium constant for the complex coming apart. A high value points to lower affinity. On to `Cc1cc(Nc2nc(SCc3ccc(C(=O)Nc4ccc(F)cc4N)cc3)nn3cccc23)n[nH]1` [CYD19], for which the Kd at Snail [1] was determined as 180 nM; on Slug (Snail2), 600 nM; at Snail [2], 3000 nM.

The values are drawn from PMC7176418 (Science Advances, 2020).
